Several values for one entry are separate records, joined by “and”; a condition that tells them apart may be missing. Equal values may be shown once.
Key:
[1] = system: peripheral lymphocyte counts; conditions: single oral dose; cited from earlier work
[2] = system: endothelial cell (EC) infiltration into Matrigel plugs; test: In vivo Matrigel plug assay, S1P-supplemented plugs, EC infiltration; design: species or system mouse; conditions: plugs containing S1P
Method: Based on in vivo studies showing that S1P increased endothelial capillary growth into subcutaneously implanted Matrigel plugs, we speculated that SPHINGOMAB could reduce de novo BV formation in vivo. To investigate this, we employed the in vivo Matrigel Plug assay for neovascularization. In one set of experiments, Matrigel was supplemented with either […], 0.5 μg/mL bFGF or 1 μg/mL VEGF and then injected […]. into mice (n=4). After 10 days, the mice were heparinized and injected with the fluorescent lectin, Isolectin B4-FITC, which binds to adhesion molecules expressed by vascular EC that form the growing BVs. The plugs were then excised, frozen in OCT, sectioned and viewed for FITC-stained BVs.
Sections of the plugs were then stained with hemotoxyln & eosin for evaluation of EC infiltration (FIG. 6B). The infiltration of ECs is a critical step in neo-vascularization. […] Cell infiltration is presumed to be ECs although we recognize that other cell types such as immune cells may also be stained.

[3] = system: human retinal pigmented epithelial cells; test: alpha-SMA expression in retinal pigmented epithelial cells; type: cell-based
From the text: (§1) In many of these disorders, circulating growth factors and chemokines promote the transformation of normal ocular cells into fibrocontractile, scar tissue-producing cells that have been termed “myofibroblasts”. Normally, myofibroblasts are responsible for tissue repair as part of the wound healing response following injury. However altered number and function of myofibroblasts are implicated in diseases characterized by pathological scar tissue formation in the liver, skin, lung, kidney, heart and eyes. In the eye, transformation of retinal pigmented epithelial (RPE) cells to a myofibroblast phenotype is linked to formation of fibro-contractile membranes which cause retinal detachment and subsequent vision impairment. In addition, myofibroblast transformation of ocular fibroblasts can result in abnormal scar tissue production after eye injury leading to subsequent vision loss. Although many of the circulating protein factors in the eye that promote myofibroblast formation have been identified, nothing is known regarding the role of lysolipids such as S1P in this process. Therefore, we examined the effects of S1P on myofibroblast transformation of several human ocular cell lines.
(§2) In these experiments, the ability of S1P to promote α-SMA expression differed in a concentration dependent manner between the retinal pigmented epithelial cells and conjunctiva fibroblasts. […]

[4] = system: human conjunctiva fibroblasts; test: alpha-SMA expression in conjunctiva fibroblasts; type: cell-based; conditions: 10 uM S1P (only at this concentration)
From the text: as §1, §2

[5] = system: COLO205 colorectal tumor xenograft; test: SC COLO205 colorectal tumor xenograft in nude NCr mice; type: in vivo, mouse; conditions: LT1009 50 mg/kg ip q3d; Avastin 40 mg/kg iv q7d; Paclitaxel 15 mg/kg iv q1dx5
Method: Nude mice were implanted sc near the right flank with one fragment per mouse of COLO 205 tumor from an in vivo passage. All treatments were initiated the day when 60 mice in each experiment established tumors ranging in size from approximately 100 to 200 mm3. […] Avastin was administered iv at a dosage of 40 mg/kg/dose on a q7d schedule, injected in a volume of 0.1 mL/20 g body weight. Paclitaxel (positive control), was administered iv at a dosage of 15 mg/kg/dose on a q1d×5 schedule, injected in a volume of 0.1 mL/10 g body weight.
(§3) Animals were observed daily for mortality. Tumor dimensions and body weights were collected twice weekly starting with the first day of treatment and including the day of study termination. When the median tumor in the vehicle-treated control group in each study reached approximately 4,000 mg, the study was terminated. Tumors from each animal were harvested, wet weights were recorded, tumors were processed for determination of microvascular densities (MVD) by CD-31 staining. Tumor weights (mg) were calculated using the equation for an ellipsoid sphere (l×w^2)/2=mm^3, where l and w refer to the larger and smaller dimensions collected at each measurement and assuming unit density (1 mm3=1 mg).

[6] = system: HT29 colon tumor xenografts; test: SC HT29 colorectal tumor xenograft in nude NCr mice; type: in vivo, mouse; conditions: LT1009 50 mg/kg ip q2d; Avastin 20 mg/kg iv q4d; 5-FU 75 mg/kg ip q4d
Method: Nude mice were implanted sc near the right flank with one fragment per mouse of HT29 tumor from an in vivo passage. All treatments were initiated the day when 60 mice in each experiment established tumors ranging in size from approximately 100 to 200 mm^3. There were ten mice per treatment group. […] 75 mg/kg 5-FU and 20 mg/kg Avastin were administered ip and iv at a dosage of 75 mg/kg/dose and 20 mg/kg/dose, respectively, q4d, injected in a volume of 0.1 mL/10 g body weight.
as §3, with “recorded, and” for “recorded,”, “MVD” for “microvascular densities (MVD)”, “mm^3=1” for “mm3=1”

[7] = system: DU145 prostate tumor xenograft; test: SC DU145 prostate tumor xenograft in nude NCr mice; type: in vivo, mouse; conditions: LT1009 50 mg/kg ip q2d; Avastin 20 mg/kg q4d; Paclitaxel 7.5 mg/kg q1dx5
Method: Nude mice were implanted sc near the right flank with one fragment per mouse of DU145 tumor from an in vivo passage. All treatments were initiated the day when 60 mice in each experiment established tumors ranging in size from approximately 100 to 200 mm^3. […] Paclitaxel and Avastin were administered iv and ip at a dosage of 7.5 mg/kg/dose and 20 mg/kg/dose, q1d×5 and q4d, respectively, injected in a volume of 0.1 mL/10 g body weight.
During the course of the study tumor growth was monitored by measuring the sc tumors on three axes and calculating the volume. At the end of the study final tumor weights and volumes were determined and then the mice were sacrificed, the tumors harvested. Microvascular densities (MVD) of the tumors were then determined by CD-31 staining.

CCCCCCCCc1ccc(CCC(N)(CO)CO)cc1 [FTY720]
reduction of peripheral lymphocyte counts [1]: 30-70%

CCCCCCCCCCCCC/C=C/[C@@H](O)[C@@H](N)COP(=O)(O)O [S1P, sphingosine-1-phosphate]
increase of EC infiltration vs Matrigel only plugs [2]: 3 fold
alpha-SMA expression ([3]; 0.001 uM S1P): significant increase
alpha-SMA expression ([3]; 10 uM S1P): decreased to basal levels
alpha-SMA expression [4]: significant increase

Avastin: anti-angiogenic drug, bevacizumab (Avastin, Genentech)
% Reduction compared to Vehicle-Treated Mice [5]: 35%
% Reduction compared to Vehicle-Treated Mice [6]: 30%
% Reduction compared to Vehicle-Treated Mice [7]: 80% and 79%

Source: patent US8444970B2, “Compositions and methods for treating ocular diseases and conditions” (Lpath, Inc., priority 2006, dated 2013)
